# Assay results: PubChem BioAssay (NCI)
#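 Following 48 hours of exposure in 96-well plates, responses at five concentrations were used to interpolate endpoints linearly. TGI: concentration producing complete growth inhibition.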
# Legend:
# Assay in all cases: NCI tumour cell line growth inhibition, 48 h
# HT29 colon = system: HT29 colon
# DMS 114 small cell lung = system: DMS 114 small cell lung
# CAKI-1 renal = system: CAKI-1 renal
# OVCAR-4 ovarian = system: OVCAR-4 ovarian
# ACHN renal = system: ACHN renal
# M14 melanoma = system: M14 melanoma
# MOLT-4 leukemia = system: MOLT-4 leukemia
# SK-MEL-2 melanoma = system: SK-MEL-2 melanoma
# SNB-75 CNS = system: SNB-75 CNS
# NCI-H460 lung = system: NCI-H460 lung
# RXF 393 renal = system: RXF 393 renal
# SF-295 CNS = system: SF-295 CNS
# SK-MEL-5 melanoma = system: SK-MEL-5 melanoma
# DLD-1 colon = system: DLD-1 colon
# A549 NSCLC = system: A549 NSCLC
# SK-MEL-28 melanoma = system: SK-MEL-28 melanoma
# SW-620 colon = system: SW-620 colon
# TK-10 renal = system: TK-10 renal
# HOP-62 NSCLC = system: HOP-62 NSCLC
# IGROV1 ovarian = system: IGROV1 ovarian
# DMS 273 small cell lung = system: DMS 273 small cell lung
# RPMI-8226 leukemia = system: RPMI-8226 leukemia
# SNB-19 CNS = system: SNB-19 CNS
# UACC-62 melanoma = system: UACC-62 melanoma
# UO-31 renal = system: UO-31 renal
# SK-OV-3 ovarian = system: SK-OV-3 ovarian
# EKVX NSCLC = system: EKVX NSCLC
# M19-MEL melanoma = system: M19-MEL melanoma
# NCI-H226 lung = system: NCI-H226 lung
# K-562 leukemia = system: K-562 leukemia
# OVCAR-8 ovarian = system: OVCAR-8 ovarian
# KM12 colon = system: KM12 colon
# UACC-257 melanoma = system: UACC-257 melanoma
# NCI-H522 lung = system: NCI-H522 lung
# SN12C renal = system: SN12C renal
# OVCAR-3 ovarian = system: OVCAR-3 ovarian
# MALME-3M melanoma = system: MALME-3M melanoma
# SF-268 CNS = system: SF-268 CNS
# KM20L2 colon = system: KM20L2 colon
# COLO 205 colon = system: COLO 205 colon
# CCRF-CEM leukemia = system: CCRF-CEM leukemia
# U251 CNS = system: U251 CNS
# HCC-2998 colon = system: HCC-2998 colon
# XF 498 CNS = system: XF 498 CNS
# 786-0 renal = system: 786-0 renal
# NCI-H23 lung = system: NCI-H23 lung
# LXFL 529 NSCLC = system: LXFL 529 NSCLC
# SF-539 CNS = system: SF-539 CNS
# LOX IMVI melanoma = system: LOX IMVI melanoma
# A498 renal = system: A498 renal
# HCT-116 colon = system: HCT-116 colon
# SNB-78 CNS = system: SNB-78 CNS
# SR leukemia = system: SR leukemia
# OVCAR-5 ovarian = system: OVCAR-5 ovarian
# HCT-15 colon = system: HCT-15 colon
# HL-60(TB) leukemia = system: HL-60(TB) leukemia
# HOP-92 NSCLC = system: HOP-92 NSCLC
structure (smiles),measurement,setting,value
CC(C)NC(C)C(C)c1ccccc1 (configuration not stated),TGI,HT29 colon,> 100 µM
same,TGI,DMS 114 small cell lung,> 100 µM
same,TGI,CAKI-1 renal,> 100 µM
same,TGI,OVCAR-4 ovarian,> 100 µM
same,TGI,ACHN renal,> 100 µM
same,TGI,M14 melanoma,> 100 µM
same,TGI,MOLT-4 leukemia,> 100 µM
same,TGI,SK-MEL-2 melanoma,> 100 µM
same,TGI,SNB-75 CNS,> 100 µM
same,TGI,NCI-H460 lung,> 100 µM
same,TGI,RXF 393 renal,> 100 µM
same,TGI,SF-295 CNS,> 100 µM
same,TGI,SK-MEL-5 melanoma,> 100 µM
same,TGI,DLD-1 colon,> 100 µM
same,TGI,A549 NSCLC,> 100 µM
same,TGI,SK-MEL-28 melanoma,> 100 µM
same,TGI,SW-620 colon,> 100 µM
same,TGI,TK-10 renal,> 100 µM
same,TGI,HOP-62 NSCLC,> 100 µM
same,TGI,IGROV1 ovarian,> 100 µM
same,TGI,DMS 273 small cell lung,> 100 µM
same,TGI,RPMI-8226 leukemia,> 100 µM
same,TGI,SNB-19 CNS,> 100 µM
same,TGI,UACC-62 melanoma,> 100 µM
same,TGI,UO-31 renal,> 100 µM
same,TGI,SK-OV-3 ovarian,> 100 µM
same,TGI,EKVX NSCLC,> 100 µM
same,TGI,M19-MEL melanoma,> 100 µM
same,TGI,NCI-H226 lung,> 100 µM
same,TGI,K-562 leukemia,> 100 µM
same,TGI,OVCAR-8 ovarian,> 100 µM
same,TGI,KM12 colon,> 100 µM
same,TGI,UACC-257 melanoma,> 100 µM
same,TGI,NCI-H522 lung,> 100 µM
same,TGI,SN12C renal,> 100 µM
same,TGI,OVCAR-3 ovarian,> 100 µM
same,TGI,MALME-3M melanoma,> 100 µM
same,TGI,SF-268 CNS,> 100 µM
same,TGI,KM20L2 colon,> 100 µM
same,TGI,COLO 205 colon,> 100 µM
same,TGI,CCRF-CEM leukemia,> 100 µM
same,TGI,U251 CNS,> 100 µM
same,TGI,HCC-2998 colon,> 100 µM
same,TGI,XF 498 CNS,> 100 µM
same,TGI,786-0 renal,> 100 µM
same,TGI,NCI-H23 lung,> 100 µM
same,TGI,LXFL 529 NSCLC,> 100 µM
same,TGI,SF-539 CNS,> 100 µM
same,TGI,LOX IMVI melanoma,> 100 µM
same,TGI,A498 renal,> 100 µM
same,TGI,HCT-116 colon,> 100 µM
CC(=O)OCC(OC(C)=O)C(OC(C)=O)C(OC(C)=O)C(=O)CNn1c(-c2ccc(C)cc2)nc2ccccc2c1=O (configuration not stated),TGI,HT29 colon,> 100 µM
same,TGI,DMS 114 small cell lung,> 100 µM
same,TGI,CAKI-1 renal,> 100 µM
same,TGI,SNB-78 CNS,> 100 µM
same,TGI,OVCAR-4 ovarian,> 100 µM
same,TGI,ACHN renal,> 100 µM
same,TGI,M14 melanoma,> 100 µM
same,TGI,MOLT-4 leukemia,> 100 µM
same,TGI,SK-MEL-2 melanoma,> 100 µM
same,TGI,SR leukemia,> 100 µM
same,TGI,SNB-75 CNS,> 100 µM
same,TGI,NCI-H460 lung,> 100 µM
same,TGI,RXF 393 renal,> 100 µM
same,TGI,SF-295 CNS,> 100 µM
same,TGI,SK-MEL-5 melanoma,> 100 µM
same,TGI,A549 NSCLC,> 100 µM
same,TGI,SK-MEL-28 melanoma,> 100 µM
same,TGI,SW-620 colon,> 100 µM
same,TGI,HOP-62 NSCLC,> 100 µM
same,TGI,DMS 273 small cell lung,> 100 µM
same,TGI,RPMI-8226 leukemia,> 100 µM
same,TGI,SNB-19 CNS,> 100 µM
same,TGI,UACC-62 melanoma,> 100 µM
same,TGI,UO-31 renal,> 100 µM
same,TGI,SK-OV-3 ovarian,> 100 µM
same,TGI,EKVX NSCLC,> 100 µM
same,TGI,M19-MEL melanoma,> 100 µM
same,TGI,K-562 leukemia,> 100 µM
same,TGI,OVCAR-8 ovarian,> 100 µM
same,TGI,KM12 colon,> 100 µM
same,TGI,UACC-257 melanoma,> 100 µM
same,TGI,NCI-H522 lung,> 100 µM
same,TGI,SN12C renal,> 100 µM
same,TGI,OVCAR-3 ovarian,> 100 µM
same,TGI,MALME-3M melanoma,> 100 µM
same,TGI,SF-268 CNS,> 100 µM
same,TGI,OVCAR-5 ovarian,> 100 µM
same,TGI,KM20L2 colon,> 100 µM
same,TGI,COLO 205 colon,> 100 µM
same,TGI,CCRF-CEM leukemia,> 100 µM
same,TGI,HCT-15 colon,> 100 µM
same,TGI,U251 CNS,> 100 µM
same,TGI,XF 498 CNS,> 100 µM
same,TGI,786-0 renal,> 100 µM
same,TGI,NCI-H23 lung,> 100 µM
same,TGI,LXFL 529 NSCLC,> 100 µM
same,TGI,SF-539 CNS,> 100 µM
same,TGI,LOX IMVI melanoma,> 100 µM
same,TGI,HL-60(TB) leukemia,> 100 µM
same,TGI,A498 renal,> 100 µM
same,TGI,HCT-116 colon,> 100 µM
COc1cc(C2Oc3cc(-c4oc5cc(O)cc(O)c5c(=O)c4O)ccc3OC2CO)ccc1O (configuration not stated),TGI,HT29 colon,69.7 µM
same,TGI,DMS 114 small cell lung,> 100 µM
same,TGI,CAKI-1 renal,> 73.2 µM
same,TGI,SNB-78 CNS,> 100 µM
same,TGI,OVCAR-4 ovarian,> 76.7 µM
same,TGI,ACHN renal,29.1 µM
same,TGI,M14 melanoma,> 70.5 µM
same,TGI,MOLT-4 leukemia,> 38.9 µM
same,TGI,SK-MEL-2 melanoma,32.6 µM
same,TGI,SR leukemia,> 54.1 µM
same,TGI,SNB-75 CNS,> 60.7 µM
same,TGI,NCI-H460 lung,12.7 µM
same,TGI,RXF 393 renal,6.02 µM
same,TGI,SF-295 CNS,64.8 µM
same,TGI,SK-MEL-5 melanoma,96.5 µM
same,TGI,DLD-1 colon,> 100 µM
same,TGI,A549 NSCLC,> 100 µM
same,TGI,SK-MEL-28 melanoma,62.3 µM
same,TGI,SW-620 colon,> 100 µM
same,TGI,TK-10 renal,58.3 µM
same,TGI,HOP-62 NSCLC,> 80.4 µM
same,TGI,IGROV1 ovarian,> 100 µM
same,TGI,DMS 273 small cell lung,31.2 µM
same,TGI,RPMI-8226 leukemia,> 56.4 µM
same,TGI,SNB-19 CNS,81.7 µM
same,TGI,UACC-62 melanoma,> 100 µM
same,TGI,UO-31 renal,6.81 µM
same,TGI,SK-OV-3 ovarian,> 95.5 µM
same,TGI,M19-MEL melanoma,> 100 µM
same,TGI,NCI-H226 lung,82.1 µM
same,TGI,K-562 leukemia,> 100 µM
same,TGI,OVCAR-8 ovarian,> 100 µM
same,TGI,KM12 colon,> 100 µM
same,TGI,UACC-257 melanoma,> 100 µM
same,TGI,NCI-H522 lung,> 30 µM
same,TGI,SN12C renal,> 95.2 µM
same,TGI,OVCAR-3 ovarian,54.8 µM
same,TGI,MALME-3M melanoma,67 µM
same,TGI,SF-268 CNS,> 57.2 µM
same,TGI,HOP-92 NSCLC,52 µM
same,TGI,COLO 205 colon,75.3 µM
same,TGI,CCRF-CEM leukemia,> 100 µM
same,TGI,HCT-15 colon,> 100 µM
same,TGI,U251 CNS,> 100 µM
same,TGI,HCC-2998 colon,> 78.9 µM
same,TGI,XF 498 CNS,> 62.4 µM
same,TGI,786-0 renal,72.8 µM
same,TGI,NCI-H23 lung,34.9 µM
same,TGI,LXFL 529 NSCLC,> 100 µM
same,TGI,SF-539 CNS,34.3 µM
same,TGI,HL-60(TB) leukemia,> 64.5 µM
same,TGI,A498 renal,> 49.3 µM
same,TGI,HCT-116 colon,> 37.1 µM
CCNc1cnc2c(n1)c(=O)n(C)c(=O)n2C,TGI,HT29 colon,> 100 µM
same,TGI,DMS 114 small cell lung,> 100 µM
same,TGI,CAKI-1 renal,> 100 µM
same,TGI,OVCAR-4 ovarian,> 100 µM
same,TGI,ACHN renal,> 100 µM
same,TGI,M14 melanoma,> 100 µM
same,TGI,MOLT-4 leukemia,> 100 µM
same,TGI,SK-MEL-2 melanoma,> 100 µM
same,TGI,SNB-75 CNS,> 100 µM
same,TGI,NCI-H460 lung,> 100 µM
same,TGI,RXF 393 renal,> 100 µM
same,TGI,SF-295 CNS,> 100 µM
same,TGI,SK-MEL-5 melanoma,> 100 µM
same,TGI,DLD-1 colon,> 100 µM
same,TGI,A549 NSCLC,> 100 µM
same,TGI,SK-MEL-28 melanoma,> 100 µM
same,TGI,SW-620 colon,> 100 µM
same,TGI,TK-10 renal,> 100 µM
same,TGI,HOP-62 NSCLC,> 100 µM
same,TGI,IGROV1 ovarian,> 100 µM
same,TGI,DMS 273 small cell lung,> 100 µM
same,TGI,RPMI-8226 leukemia,> 100 µM
same,TGI,SNB-19 CNS,> 100 µM
same,TGI,UACC-62 melanoma,> 100 µM
same,TGI,UO-31 renal,> 100 µM
same,TGI,SK-OV-3 ovarian,> 100 µM
same,TGI,EKVX NSCLC,> 100 µM
same,TGI,M19-MEL melanoma,> 100 µM
same,TGI,K-562 leukemia,> 100 µM
same,TGI,OVCAR-8 ovarian,> 100 µM
same,TGI,KM12 colon,> 100 µM
same,TGI,UACC-257 melanoma,> 100 µM
same,TGI,NCI-H522 lung,> 100 µM
same,TGI,SN12C renal,> 100 µM
same,TGI,OVCAR-3 ovarian,> 100 µM
same,TGI,MALME-3M melanoma,> 100 µM
same,TGI,SF-268 CNS,> 100 µM
same,TGI,OVCAR-5 ovarian,> 100 µM
same,TGI,KM20L2 colon,> 100 µM
same,TGI,HOP-92 NSCLC,> 100 µM
same,TGI,COLO 205 colon,> 100 µM
same,TGI,CCRF-CEM leukemia,> 100 µM
same,TGI,HCT-15 colon,> 100 µM
same,TGI,U251 CNS,> 100 µM
same,TGI,HCC-2998 colon,> 100 µM
same,TGI,XF 498 CNS,> 100 µM
same,TGI,NCI-H23 lung,> 100 µM
same,TGI,LXFL 529 NSCLC,> 100 µM
same,TGI,SF-539 CNS,> 100 µM
same,TGI,HL-60(TB) leukemia,> 100 µM
same,TGI,A498 renal,> 100 µM
same,TGI,HCT-116 colon,> 100 µM
